Laboratory results as given in patent US10155021B2, “Antimicrobial 4-oxoquinolizines” (Emergent Product Development Gaithersburg Inc., priority 2011, dated 2018).
Values after ≈ are worked out from the molar mass of the structure shown. Where two headings read alike, the source gives them in different places.

Assays:
[1] = system: S. aureus BAA-1556 (USA300-Type MRSA, FQ-R); experiment: MIC, selected panel of Gram-positive and Gram-negative strains (Example 5); format: cell-based, Staphylococcus aureus
B. thailandensis E264 = experiment: microbe, parasite or virus in culture; format: cell-based, Burkholderia thailandensis; settings: Burkholderia thailandensis, E264, read-out: MIC B. thailandensis E264
S. aureus ATCC 25923 = experiment: MIC, selected panel of Gram-positive and Gram-negative strains (Example 5); format: cell-based; settings: Staphylococcus aureus, ATCC25923, read-out: MIC S. aureus ATCC 25923
[2] = system: S. aureus ATCC 43300 (MRSA, FQ-S); experiment: as above; format: cell-based, Staphylococcus aureus
A. baumannii ATCC 19606 = experiment: as above; format: cell-based, Acinetobacter baumannii; settings: Acinetobacter baumannii, ATCC19606, read-out: MIC A. baumannii ATCC 19606
P. aeruginosa ATCC 27853 = experiment: as above; format: cell-based
E. coli ATCC 25922 = experiment: as above; format: cell-based, Escherichia coli
[3] = Staphylococcus aureus, read-out: MIC S. aureus BAA-1556 (USA300-Type MRSA, FQ-R)
[4] = Staphylococcus aureus, read-out: MIC S. aureus ATCC 43300 (MRSA, FQ-S)
[5] = Pseudomonas aeruginosa, ATCC27853, read-out: MIC P. aeruginosa ATCC 27853
[6] = Escherichia coli, ATCC25922, read-out: MIC E. coli ATCC 25922
[7] = Staphylococcus aureus; read-out: MIC S. aureus BAA-1556 (USA300-Type MRSA, FQ-R)

SMILES | MIC [1, 3] | MIC (B. thailandensis E264) | MIC (S. aureus ATCC 25923) | MIC [2, 4] | MIC (A. baumannii ATCC 19606) | MIC (P. aeruginosa ATCC 27853; [5]) | MIC (E. coli ATCC 25922; [6]) | MIC (E. coli ATCC 25922; Escherichia coli, ATCC25922; read-out: MIC E. coli ATCC 25922) | MIC [1, 7] | MIC ([2]; Staphylococcus aureus; read-out: MIC S. aureus ATCC 43300 (MRSA, FQ-S)) | MIC (P. aeruginosa ATCC 27853; Pseudomonas aeruginosa, ATCC27853; read-out: MIC P. aeruginosa ATCC 27853)
COc1c(-c2ccc(N)nc2)ccn2c(=O)c(C(=O)[O-])cc(C3CC3)c12.[K+] [Compound 89K salt, potassium 8-(6-amino-pyridin-3-yl)-1-cyclopropyl-9-methoxy-4-oxo-4H-quinolizine-3-carboxylate] | 2 µg/mL | 4 µg/mL | 0.032 µg/mL | 0.032 µg/mL | 0.5 µg/mL | 8 µg/mL |  |  |  |  | 
Cc1c(-c2cccc(O)c2)ccn2c(=O)c(C(=O)[O-])cc(C3CC3)c12.[K+] [Compound 56K salt, potassium 1-cyclopropyl-8-(3-hydroxyphenyl)-9-methyl-4-oxo-4H-quinolizine-3-carboxylate] |  | 0.25 µg/mL | 0.008 µg/mL | 0.008 µg/mL |  | 2 µg/mL | 0.032 µg/mL |  |  |  | 
COc1c(-c2ccc3[nH]ncc3c2)ccn2c(=O)c(C(=O)[O-])cc(C3CC3)c12.[K+] [Compound 90K salt, potassium 8-(1H-indazol-5-yl)-1-cyclopropyl-9-methoxy-4-oxo-4H-quinolizine-3-carboxylate] | 0.25 µg/mL | 2 µg/mL | 0.008 µg/mL | 0.008 µg/mL | 0.5 µg/mL | 4 µg/mL |  |  |  |  | 
Cc1cn2c(=O)c(C(=O)[O-])cc(C3CC3)c2c(C)c1-c1ccc2[nH]ncc2c1.[K+] [Compound 88K salt, potassium 8-(1H-indazol-5-yl)-1-cyclopropyl-7,9-dimethyl-4-oxo-4H-quinolizine-3-carboxylate] | 0.5 µg/mL | 1 µg/mL | 0.008 µg/mL | 0.008 µg/mL | 0.5 µg/mL | 4 µg/mL |  |  |  |  | 
CNc1ccc(-c2ccn3c(=O)c(C(=O)[O-])cc(C4CC4)c3c2C)cn1.[K+] [Compound 78K salt, potassium 8-(6-(methylamino)pyridin-3-yl)-1-cyclopropyl-9-methyl-4-oxo-4H-quinolizine-3-carboxylate] |  | 0.5 µg/mL | 0.008 µg/mL | 0.008 µg/mL |  | 2 µg/mL | 0.064 to 0.125 µg/mL |  |  |  | 
C[C@H]1c2cccc(O)c2C(=O)C2=C(O)[C@]3(O)C(=O)C(C(N)=O)=C(O)[C@@H](N(C)C)[C@@H]3[C@@H](O)[C@@H]21 [Doxycycline, reference compound] |  | 2 µg/mL (≈ 4.5 µM) |  |  |  |  |  | 1 µg/mL (≈ 2.25 µM) | 4 µg/mL (≈ 9 µM) | 0.25 µg/mL (≈ 0.563 µM) | > 8 µg/mL
Cc1c(-c2ccc(N3CCNCC3)nc2)ccn2c(=O)c(C(=O)[O-])cc(C3CC3)c12.[K+] [Compound 84K salt, potassium 8-(6-(piperazin-1-yl)pyridin-3-yl)-1-cyclopropyl-9-methyl-4-oxo-4H-quinolizine-3-carboxylate] | 2 µg/mL | 8 µg/mL |  |  | 2 µg/mL | 8 µg/mL | 0.125 to 0.25 µg/mL |  |  |  | 
COc1cc(-c2ccn3c(=O)c(C(=O)[O-])cc(C4CC4)c3c2C)ccc1O.[K+] [Compound 66K salt, potassium 8-(4-hydroxy-3-methoxyphenyl)-1-cyclopropyl-9-methyl-4-oxo-4H-quinolizine-3-carboxylate] | 0.25 µg/mL | 1 µg/mL | 0.008 µg/mL | 0.008 µg/mL | 0.5 µg/mL | 4 µg/mL |  |  |  |  | 
Cc1c(-c2ccc3[nH]nc(C4CC4)c3c2)ccn2c(=O)c(C(=O)[O-])cc(C3CC3)c12.[K+] [Compound 71K salt, potassium 8-(3-cyclopropyl-1H-indazol-5-yl)-1-cyclopropyl-9-methyl-4-oxo-4H-quinolizine-3-carboxylate] |  | 2 µg/mL | ≤ 0.004 µg/mL | ≤ 0.004 µg/mL | 0.5 µg/mL | > 8 µg/mL |  |  |  |  | 
Cc1c(-c2ccc3c(c2)CCN3)ccn2c(=O)c(C(=O)[O-])cc(C3CC3)c12.[K+] [Compound 77K salt, potassium 8-(indolin-5-yl)-1-cyclopropyl-9-methyl-4-oxo-4H-quinolizine-3-carboxylate] | 0.5 µg/mL | 1 µg/mL | 0.016 µg/mL | 0.016 µg/mL | 0.25 µg/mL | 4 µg/mL |  |  |  |  | 
Cc1c(-c2ccc(O)cc2)c(F)cn2c(=O)c(C(=O)[O-])cc(C3CC3)c12.[K+] [Compound 61K salt, potassium 8-(4-hydroxyphenyl)-1-cyclopropyl-7-fluoro-9-methyl-4-oxo-4H-quinolizine-3-carboxylate] | 0.064 µg/mL | 0.5 µg/mL |  |  |  | 2 µg/mL | 0.032 µg/mL |  |  |  | 
Cc1c(-c2ccc3c(cnn3C)c2)ccn2c(=O)c(C(=O)[O-])cc(C3CC3)c12.[K+] [Compound 81K salt, potassium 8-(1-methyl-1H-indazol-5-yl)-1-cyclopropyl-9-methyl-4-oxo-4H-quinolizine-3-carboxylate] | 0.064 µg/mL | 0.25 µg/mL | ≤ 0.004 µg/mL | ≤ 0.004 µg/mL |  | 2 µg/mL | 0.064 µg/mL |  |  |  | 
CNc1ccc(-c2ccn3c(=O)c(C(=O)[O-])cc(C4CC4)c3c2C)cc1C.[K+] [Compound 69K salt, potassium 8-(3-methyl-4-(methylamino)phenyl)-1-cyclopropyl-9-methyl-4-oxo-4H-quinolizine-3-carboxylate] | 0.25 µg/mL | 1 µg/mL | ≤ 0.004 µg/mL | ≤ 0.004 µg/mL | 0.25 to 0.5 µg/mL | 4 µg/mL |  |  |  |  | 
Cc1c(-c2ccc3sc(N)nc3c2)ccn2c(=O)c(C(=O)[O-])cc(C3CC3)c12.[K+] [Compound 73K salt, potassium 8-(2-aminobenzo[d]thiazol-5-yl)-1-cyclopropyl-9-methyl-4-oxo-4H-quinolizine-3-carboxylate] | 0.064 µg/mL | 0.5 µg/mL | ≤ 0.004 µg/mL | ≤ 0.004 µg/mL |  | 2 µg/mL | 0.032 µg/mL |  |  |  | 
Cc1cn2c(=O)c(C(=O)[O-])cc(C3CC3)c2c(C)c1-c1ccc(N)nc1.[K+] [Compound 87K salt, potassium 8-(6-amino-pyridin-3-yl)-1-cyclopropyl-7,9-dimethyl-4-oxo-4H-quinolizine-3-carboxylate] | 8 µg/mL | 4 µg/mL | 0.064 µg/mL | 0.064 µg/mL | 0.25 µg/mL | 8 µg/mL |  |  |  |  | 
Cc1c(-c2ccc(CN)s2)ccn2c(=O)c(C(=O)[O-])cc(C3CC3)c12.[K+] [Compound 13K salt, potassium 8-(5-(aminomethyl)thiophen-2-yl)-1-cyclopropyl-9-methyl-4-oxo-4H-quinolizine-3-carboxylate] | 0.5 µg/mL | 0.5 µg/mL | 0.016 µg/mL | 0.016 µg/mL |  | 1 µg/mL | 0.016 µg/mL |  |  |  | 
O=C(O)c1cn(C2CC2)c2cc(N3CCNCC3)c(F)cc2c1=O [Ciprofloxacin, reference compound] |  |  |  |  |  |  |  |  | > 8 µg/mL |  | 
CC(=O)NCc1ccc(-c2ccn3c(=O)c(C(=O)[O-])cc(C4CC4)c3c2C)cc1.[K+] [Compound 64K salt, potassium 8-(4-(Acetamidomethyl)phenyl)-1-cyclopropyl-9-methyl-4-oxo-4H-quinolizine-3-carboxylate] | 0.5 µg/mL | 2 µg/mL | 0.032 µg/mL | 0.032 µg/mL | 0.5 µg/mL | 8 µg/mL |  |  |  |  | 
Cc1c(-c2ccc(O)c(F)c2)ccn2c(=O)c(C(=O)[O-])cc(C3CC3)c12.[K+] [Compound 70K salt, potassium 8-(3-fluoro-4-hydroxyphenyl)-1-cyclopropyl-9-methyl-4-oxo-4H-quinolizine-3-carboxylate] | 0.064 µg/mL | 0.25 µg/mL | ≤ 0.004 µg/mL | ≤ 0.004 µg/mL |  | 1 µg/mL | 0.032 µg/mL |  |  |  | 
